Laboratory results taken from patent publication US11691972B2, “Compounds for targeted degradation of BRD9” (C4 Therapeutics, Inc., priority 2020, dated 2023).

Molecular target: T1, BRD9 (Homo sapiens, UniProt Q9H8M2)
T1 sequence (Q9H8M2 1-597): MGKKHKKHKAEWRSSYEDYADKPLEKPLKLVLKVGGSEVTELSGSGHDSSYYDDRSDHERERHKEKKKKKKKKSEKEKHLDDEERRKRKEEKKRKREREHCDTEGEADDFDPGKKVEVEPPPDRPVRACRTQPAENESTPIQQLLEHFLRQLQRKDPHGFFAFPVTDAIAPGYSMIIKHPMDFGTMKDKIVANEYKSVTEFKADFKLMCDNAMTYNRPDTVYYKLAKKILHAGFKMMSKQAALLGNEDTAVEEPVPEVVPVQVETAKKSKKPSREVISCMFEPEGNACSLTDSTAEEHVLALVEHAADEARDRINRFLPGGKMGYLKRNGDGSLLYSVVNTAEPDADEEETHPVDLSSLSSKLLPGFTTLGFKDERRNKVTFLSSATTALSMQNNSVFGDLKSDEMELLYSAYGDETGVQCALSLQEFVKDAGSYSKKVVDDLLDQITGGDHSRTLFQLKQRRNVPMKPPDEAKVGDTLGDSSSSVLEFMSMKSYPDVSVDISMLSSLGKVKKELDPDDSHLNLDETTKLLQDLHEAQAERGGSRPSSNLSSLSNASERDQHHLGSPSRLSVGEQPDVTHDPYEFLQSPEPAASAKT
Experiment: HiBiT BRD9 degradation assay in 293T.166 (BRD9-HiBiT) cells
Format: cell-based
Parameters: endogenously expressing BRD9 with HiBiT fusion tag via CRISPR; host or cells: 293T.166 (BRD9-HiBiT), also expressing LgBiT ectopically
Conditions: Table 1; 293T.166 cells, 2.0 hours; class symbols; read-out: HiBiT-Degradation 293T.166 BRD9 2.0 hours (DC50)
Summary of the method: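 293T.166 cells carrying endogenous CRISPR BRD9-HiBiT and expressing LgBiT treated 2 h at 37° C. with compounds, 11-point half-log titration from 10 μM in duplicate. Remaining BRD9 measured as lytic HiBiT luminescence; untreated cells as negative control, no-reagent wells as positive control.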

Structure (SMILES) | DC50
COc1cc(-c2cn(C)c(=O)c(C)c2C)cc(Cl)c1CN1CCc2c(CC3CCN(c4ccc(NC5CCC(=O)NC5=O)cc4F)CC3)cccc2C1 (stereo not drawn) [Compound 109] | < 100 nM
CN(C(=O)N1CCC(c2ccc(NC3CCC(=O)NC3=O)cc2)CC1)C1CCN(Cc2ccc(-c3cn(C)c(=O)c4ccccc34)cc2OC(F)(F)F)CC1 (stereo not drawn) [Compound 113] | < 100 nM
CN(C(=O)N1CCC(c2ccc(NC3CCC(=O)NC3=O)cc2)CC1)C1CCN(Cc2ccc(-c3cn(C)c(=O)c4cc(F)ccc34)cc2OC(F)(F)F)CC1 (stereo not drawn) [Compound 114] | < 100 nM
CN(C(=O)N1CCC(c2ccc(NC3CCC(=O)NC3=O)cc2)CC1)C1CCN(Cc2ccc(-c3cn(C)c(=O)c4cnccc34)cc2OC(F)(F)F)CC1 (stereo not drawn) [Compound 122] | < 100 nM
CN(C(=O)N1CCC(c2ccc(NC3CCC(=O)NC3=O)cc2)CC1)C1CCN(Cc2ccc(-c3cn(C)c(=O)c4cc(F)ccc34)cc2OC(F)(F)F)CC1(F)F (stereo not drawn) [Compound 123] | < 100 nM
COc1cc(-c2cn(C)c(=O)c3cnccc23)cc(Cl)c1CN1CCC(N(C)C(=O)N2CCC(c3ccc(NC4CCC(=O)NC4=O)cc3)CC2)C(F)(F)C1 (stereo not drawn) [Compound 125] | < 100 nM
COc1cc(-c2cn(C)c(=O)c3cnccc23)cc(Cl)c1C(=O)N1CCC(N(C)C(=O)N2CCC(c3ccc(NC4CCC(=O)NC4=O)cc3)CC2)CC1 (stereo not drawn) [Compound 126, N-[1-[2-chloro-6-methoxy-4-(2-methyl-1-oxo-2,7-naphthyridin-4-yl)benzoyl]-4-piperidyl]-4-[4-[(2,6-dioxo-3-piperidyl)amino]phenyl]-N-methyl-piperidine-1-carboxamide] | < 100 nM
CN(C(=O)N1CCC(c2ccc(NC3CCC(=O)NC3=O)cc2)CC1)C1CCN(C(=O)c2ccc(-c3cn(C)c(=O)c4ccccc34)cc2OC(F)(F)F)CC1 (stereo not drawn) [Compound 127] | < 100 nM
CN(C(=O)N1CCC(c2ccc(NC3CCC(=O)NC3=O)cc2)CC1)C1CCN(C(=O)c2ccc(-c3cn(C)c(=O)c4ccc(F)cc34)cc2OC(F)(F)F)CC1 (stereo not drawn) [Compound 128] | < 100 nM
Cc1c(-c2ccc(C(=O)N3CCC(N(C)C(=O)N4CCC(c5ccc(NC6CCC(=O)NC6=O)cc5)CC4)CC3)c(OC(F)(F)F)c2)cn(C)c(=O)c1C (stereo not drawn) [Compound 129] | < 100 nM
CN(C(=O)N1CCC(c2ccc(NC3CCC(=O)NC3=O)cc2)CC1)C1CCN(C(=O)c2ccc(-c3cn(C)c(=O)c4cc(F)ccc34)cc2OC(F)(F)F)CC1 (stereo not drawn) [Compound 131] | < 100 nM
COc1cc(-c2cn(C)c(=O)c3cnccc23)cc(F)c1C(=O)N1CCC(N(C)C(=O)N2CCC(c3ccc(NC4CCC(=O)NC4=O)cc3)CC2)CC1 (stereo not drawn) [Compound 132] | < 100 nM
COc1cc(-c2cn(C)c(=O)c(C)c2C)cc(Cl)c1C(=O)N1CCC(N(C)C(=O)N2CCC(c3ccc(NC4CCC(=O)NC4=O)cc3)CC2)CC1 (stereo not drawn) [Compound 133] | < 100 nM
COc1cc(-c2cn(C)c(=O)c3ccccc23)cc(OC)c1C(=O)N1CCC(N(C)C(=O)N2CCC(c3ccc(NC4CCC(=O)NC4=O)cc3)CC2)CC1 (stereo not drawn) [Compound 135] | < 100 nM
COc1cc(-c2cn(C)c(=O)c3ccccc23)cc(Cl)c1C(=O)N1CCC(N(C)C(=O)N2CCC(c3ccc(NC4CCC(=O)NC4=O)cc3)CC2)CC1 (stereo not drawn) [Compound 136] | < 100 nM
Cc1c(-c2ccc(C(=O)N3CCC(N(C)C(=O)N4CCC(c5ccc(NC6CCC(=O)NC6=O)cc5)CC4)CC34CC4)c(OC(F)(F)F)c2)cn(C)c(=O)c1C (stereo not drawn) [Compound 137] | < 100 nM
CN(C(=O)N1CCC(c2ccc(NC3CCC(=O)NC3=O)cc2F)CC1)C1CCN(C(=O)c2ccc(-c3cn(C)c(=O)c4cnccc34)cc2OC(F)(F)F)CC1 (stereo not drawn) [Compound 138] | < 100 nM
CN(C(=O)N1CCC(c2ccc(NC3CCC(=O)NC3=O)cc2F)CC1)C1CCN(C(=O)c2ccc(-c3cn(C)c(=O)c4ccccc34)cc2OC(F)(F)F)CC1 (stereo not drawn) [Compound 139] | < 100 nM
COc1cc(-c2cn(C)c(=O)c(C)c2C)cc(Cl)c1C(=O)N1CCC(N(C)C(=O)N2CCC(c3ccc(NC4CCC(=O)NC4=O)cc3F)CC2)CC1 (stereo not drawn) [Compound 140] | < 100 nM
CN(C(=O)N1CCC(c2ccc(NC3CCC(=O)NC3=O)cc2F)CC1)C1CCN(C(=O)c2ccc(-c3cn(C)c(=O)c4cc(F)ccc34)cc2OC(F)(F)F)CC1 (stereo not drawn) [Compound 141] | < 100 nM
COc1cc(-c2cn(C)c(=O)c3cnccc23)cc(Cl)c1C(=O)N1CCC(N(C)C(=O)N2CCC(c3ccc(NC4CCC(=O)NC4=O)cc3F)CC2)CC1 (stereo not drawn) [Compound 142] | < 100 nM
Cc1c(-c2ccc(C(=O)N3CCC(N(C)C(=O)N4CCC(c5ccc(NC6CCC(=O)NC6=O)cc5F)CC4)CC3)c(OC(F)(F)F)c2)cn(C)c(=O)c1C (stereo not drawn) [Compound 143] | < 100 nM

Next, values leading:

DC50 | Structure (SMILES)
< 100 nM | COc1cc(-c2cn(C)c(=O)c3[nH]ncc23)cc(OC)c1CN1C[C@H]2CC(C(=O)N3CCC(c4ccc(NC5CCC(=O)NC5=O)cc4)CC3)C[C@H]2C1 (stereo partly drawn) [Compound 110, 3-[4-[1-[(3aR,6aS)-2-[[2,6-dimethoxy-4-(6-methyl-7-oxo-1H-pyrazolo[3,4-c]pyridin-4-yl)phenyl]methyl]-3,3a,4,5,6,6a-hexahydro-1H-cyclopenta[c]pyrrole-5-carbonyl]-4-piperidyl]anilino]piperidine-2,6-dione]
< 100 nM | COc1cc(-c2cn(C)c(=O)c3[nH]ncc23)cc(OC)c1CN1CCN(C(=O)CN2CCN(c3ccc(NC4CCC(=O)NC4=O)cc3F)CC2)C(C)(C)C1 (stereo not drawn) [Compound 111, 3-[4-[4-[2-[4-[[2,6-dimethoxy-4-(6-methyl-7-oxo-1H-pyrazolo[3,4-c]pyridin-4-yl)phenyl]methyl]-2,2-dimethyl-piperazin-1-yl]-2-oxo-ethyl]piperazin-1-yl]-3-fluoro-anilino]piperidine-2,6-dione]
< 100 nM | COc1cc(-c2cn(C)c(=O)c3[nH]ncc23)cc(F)c1CN1CCC(N(C)C(=O)N2CCC(c3ccc(NC4CCC(=O)NC4=O)cc3)CC2)CC1 (stereo not drawn) [Compound 112, 4-[4[(2,6-dioxo-3-piperidyl)amino]phenyl]-N-[1-[[2-fluoro-6-methoxy-4-(6-methyl-7-oxo-1H-pyrazolo[3,4-c]pyridin-4-yl)phenyl]methyl]-4-piperidyl]-N-methyl-piperidine-1-carboxamide]
< 100 nM | COc1cc(-c2cn(C)c(=O)c3cnccc23)cc(Cl)c1CN1CCC(N(C)C(=O)N2CCC(c3ccc(NC4CCC(=O)NC4=O)cc3)CC2)CC1 (stereo not drawn) [Compound 115]
< 100 nM | CN(C(=O)N1CCC(c2ccc(NC3CCC(=O)NC3=O)cc2)CC1)C1CCN(Cc2ccc(-c3cn(C)c(=O)c4[nH]ncc34)cc2OC(F)(F)F)CC1 (stereo not drawn) [Compound 116]
< 100 nM | COc1cc(-c2cn(C)c(=O)c3[nH]ncc23)cc(Cl)c1CN1CCC(N(C)C(=O)N2CCC(c3ccc(NC4CCC(=O)NC4=O)cc3)CC2)CC1 (stereo not drawn) [Compound 117]
< 100 nM | COc1cc(-c2cn(C)c(=O)c3ccccc23)cc(F)c1CN1CCC(N(C)C(=O)N2CCC(c3ccc(NC4CCC(=O)NC4=O)cc3)CC2)CC1 (stereo not drawn) [Compound 119]
< 100 nM | COc1cc(-c2cn(C)c(=O)c3[nH]ncc23)cc(Cl)c1CN1CCC(N(C)C(=O)N2CCC(c3ccc(OC4CCC(=O)NC4=O)cc3)CC2)CC1 (stereo not drawn) [Compound 120]
< 100 nM | COc1cc(-c2cn(C)c(=O)c3ccccc23)cc(Cl)c1CN1CCC(N(C)C(=O)N2CCC(c3ccc(NC4CCC(=O)NC4=O)cc3)CC2)CC1 (stereo not drawn) [Compound 121]
< 100 nM | COc1cc(-c2cn(C)c(=O)c3cnccc23)cc(F)c1CN1CCC(N(C)C(=O)N2CCC(c3ccc(NC4CCC(=O)NC4=O)cc3)CC2)C(F)(F)C1 (stereo not drawn) [Compound 124]
< 100 nM | CN(C(=O)N1CCC(c2ccc(NC3CCC(=O)NC3=O)cc2)CC1)C1CCN(C(=O)c2ccc(-c3cn(C)c(=O)c4[nH]ncc34)cc2OC(F)(F)F)CC1 (stereo not drawn) [Compound 130]
< 100 nM | COc1cc(-c2cn(C)c(=O)c3[nH]ncc23)cc(F)c1C(=O)N1CCC(N(C)C(=O)N2CCC(c3ccc(NC4CCC(=O)NC4=O)cc3)CC2)CC1 (stereo not drawn) [Compound 134]
< 100 nM | COc1cc(-c2cn(C)c(=O)c3[nH]ncc23)cc(F)c1CN1CCN(C(=O)NC2CCN(c3ccc(NC4CCC(=O)NC4=O)cc3)CC2)CC1 (stereo not drawn) [Compound 145, N-[1-[4-[(2,6-dioxo-3-piperidyl)amino]phenyl]-4-piperidyl]-4-[[2-fluoro-6-methoxy-4-(6-methyl-7-oxo-1H-pyrazolo[3,4-c]pyridin-4-yl)phenyl]methyl]piperazine-1-carboxamide]
< 100 nM | COc1cc(-c2cn(C)c(=O)c3[nH]ncc23)cc(F)c1CN1CCN(C(=O)OC2CCN(c3ccc(NC4CCC(=O)NC4=O)cc3)CC2)CC1 (stereo not drawn) [Compound 146, [1-[4-[(2,6-dioxo-3-piperidyl)amino]phenyl]-4-piperidyl] 4-[[2-fluoro-6-methoxy-4-(6-methyl-7-oxo-1H-pyrazolo[3,4-c]pyridin-4-yl)phenyl]methyl]piperazine-1-carboxylate]
